Laboratory results as given in patent publication US20240390404A1, “ANTI-HUMAN NOROVIRUS AGENT” (KEIO UNIVERSITY, priority 2018, published 2024).

What was measured:
[1] = test system: human norovirus GII.4 (K2017 strain); test: Human norovirus proliferation inhibition in 2D organoid after agent pre-treatment, GII.4 strain; assay type: cell-based; conditions: GII.4, 3 days treatment before infection
Experimental: Feces of a human norovirus-infected patent contains a large amount of infectious human norovirus. Thus, the feces of a human norovirus-infected patient is suspended in distilled water or the like to a final concentration of about 10%, to thereby prepare a “10% feces suspension.” The 10% feces suspension is about 10-fold diluted with an ENRA medium. The diluted suspension is added to each of the aforementioned wells having the 2D organoid (5 μL/well) and subjected to incubation for about 3 hours, to thereby proliferate human norovirus. As a result of verification, it has been confirmed that human norovirus proliferates to about 100,000 times the initial count through the culture system employing the 2D organoid.
In the Example, there were tested strains of human norovirus obtained from feces of human norovirus infection patients through the aforementioned procedure and stocked before the test. Specifically, three strains belonging to the genetic group 2 (GII) which accounts for 80 to 90% of the infected patients were selected as test targets. The isolated strain lineages included in GII (FIG. 1) were GII. 6 belonging to “Lineage 1,” GII. 3 belonging to “Lineage 2,” and GII.4 belonging to “Lineage 3” (GII. 6: K2017 strain, GII.3: TCH2004 strain, and GII. 4: K2017 strain).
The effect of 2fp-fucose treatment on proliferation of human norovirus was investigated for each lineage of norovirus. Specifically, after the 2fp-fucose treatment for 3 days, the 2D organoid was infected with each of the aforementioned norovirus strains GII.6, GII. 3, and GII. 4, and the viral proliferation amount was determined on days 3 and 6 after infection (FIG. 4).
Next, there was investigated the effect of the period of time (the number of days) of the 2fp-fucose treatment performed in advance on the anti-human norovirus action of the fucose analog. Specifically, the strain GII. 4 was treated with 2fp-fucose (several concentrations) for 1 to 4 days. […] However, in the group of 3-day treatment, the proliferation inhibition effect was observed by the 200 μM treatment with a certain range of variation in effectiveness. In the group of 4-day treatment, the proliferation inhibition effect was initially observed by 8 μM treatment, and the effect increased in a concentration-dependent manner to a 2fp-fucose concentration of 200 μM. […] Thus, the highest proliferation inhibition effect was obtained in the 2D organoid system through a 200 μM treatment for 3 to 4 days. The test was repeatedly performed three times. Error bars denote SEMs.
The 2D organoid was treated with an agent for 3 days. The tested agents were (a) 2fp-fucose (200 μM), (b) Sofosbuvir (1 μM), (c) Lamivudine (1 μM), (d) Ribavirin (400 μM), and (e) Mizoribine (100 μM). Subsequently, the thus-treated 2D organoid was infected with human norovirus (the norovirus strain GII.4), and the proliferation inhibition effect was determined (FIG. 6). The test was repeatedly performed three times. Error bars denote SEMs.

[2] = test system: human norovirus GII. 4 strain; test: Human norovirus proliferation inhibition test by use of 6a-fucose (real-time RT-PCR of genomic RNA), GII.4 strain; assay type: cell-based
Experimental: (§1) To a medium containing the 2D organoid, 6a-fucose was added so as to adjust a final concentration of 0 μM, 1.6 μM, 8 μM, 40 μM, and 200 μM, and culturing for differentiation induction was performed for 4 days. The culturing was performed by means of a 96-well plate in which 3 wells were dedicated for each 6a-fucose addition system, and one test plate was used for one human norovirus tested. The human norovirus tested included the GII.4 strain and GII. 6 strain. The culturing was performed in a CO2 gas incubator controlled at 37° C.
(§2) On day 4 of culturing, the medium was removed, and the plate was washed with a new medium. Subsequently, each human norovirus was added at 10^5 RNA copies to the plate for infection, and static culturing was performed for 3 hours. After completion of the infection treatment, human norovirus remaining in the medium was removed together with the medium, and the plate was washed thrice with a new medium.
(§3) After washing, 6a-fucose was added again to the new medium so as to adjust a final concentration to 0 μM, 1.6 μM, 8 μM, 40 μM, and 200 μM, and culturing was performed for 6 days.
(§4) A portion (10 μL) of the culture medium was collected from each well at three timings: (a) immediately after the addition to the new medium, (b) on day 3, and (c) on day 6. The sample was centrifuged at 10,000 g for 10 minutes, and the cell precipitate was removed. The human norovirus genomic RNA contained in the supernatant (1 μL) was quantitated through real-time RT-PCR.
(§5) In FIG. 13, the effects of use of 6a-fucose are shown with respect to (a) human norovirus GII. 4 strain and (b) human norovirus GII. 6 strain. The vertical axis in FIG. 13 represents the copy number of human norovirus genomic RNA (RNA titer), and the numeral under each bar graph represents the time of culturing from the start of the test.

2D organoid = test: Cytotoxicity of 6a-fucose to cultured 2D organoid (mono-layer sheet still alive); assay type: cell-based, human; conditions: 6a-fucose 1.6 to 200 μM, any of the tested concentrations
Experimental: as §1

[3] = test system: human norovirus GII. 6 strain; test: Human norovirus proliferation inhibition test by use of 6a-fucose (real-time RT-PCR of genomic RNA), GII.6 strain; assay type: cell-based
Experimental: as §1, §2, §3, §4, §5

[4] = test system: human norovirus GII. 4 strain or GII. 6 strain; test: Effect of treatment with 2fp-fucose or 6a-fucose after differentiation, on infection and reinfection (RNA titer by real-time RT-PCR); assay type: cell-based; conditions: fucose analog 200 μM added on day 5, infection on day (5+2), 3 days culturing
Experimental: (a) The 2D organoid was disseminated to a 96-well plate. After completion of differentiation induction, two fucose analogs (i.e., 2fp-fucose and 6a-fucose) were each added on day 5 to a concentration of 200 μM, to thereby provide addition groups. The results are shown in FIG. 14(a) and FIG. 14(b), respectively. A non-addition group (untreated group) was also provided. Subsequently, the medium was removed from the wells on day (5+2), and the plate was washed. Then, infection with the GII. 4 strain or the GII. 6 strain was performed.
After the infection treatment, the human norovirus remaining in the medium was removed together with the medium, and the plate was washed thrice with a new medium. After washing, the aforementioned active ingredients were each added to the new medium to a concentration of 200 μM (addition groups), and no addition was performed with respect to the untreated (i.e., non-addition) group. Culturing was performed for 3 days. A portion (10 μL) of the medium was sampled from each well, and the samples were centrifuged at 10,000 g for 10 minutes, to thereby remove cell precipitates. The amount of human norovirus genomic RNA in the supernatant (1 μL) was determined through real-time RT-PCR.
In the test system, the effect of the anti-norovirus agent of the present invention provided after human norovirus infection was estimated on the basis of the following study. Specifically, among the fucose analog-treated 2D organoid cells, the living cells on growth day 3 (i.e., most of them were not infected with human norovirus, by virtue of the effect of the fucose analog) were subjected to a secondary infection operation (i.e., reinfection). The effect of the fucose analog on the reinfection was investigated.
In a specific procedure, the addition groups were prepared through the same procedure as employed in (a) above. The primarily infected cells were cultured in the presence of the fucose analog (200 μM) for 3 days, and the medium was removed from each culture system. After completion of washing, the cells were infected again with human norovirus, and then the virus was removed together with the medium. After completion of the next washing, a medium containing the fucose analog (200 μM) (represented by Reinf+2f-fuc or Reinf+6a-fuc), or a fucose analog-free medium (represented by Reinf−2f-fuc or Reinf−6a-fuc) was added thereto, and culturing was performed for further 3 days. Similar to the above case, the amount of human norovirus released to the supernatant was determined as an RNA titer. In the graphs, the two bars on the right side correspond to (Reinf+2f-fuc and Reinf+6a-fuc) or (Reinf−2f-fuc and Reinf−6a-fuc).

CC(C)OC(=O)[C@H](C)N[P@](=O)(OC[C@H]1O[C@@H](n2ccc(=O)[nH]c2=O)[C@](C)(F)[C@@H]1O)Oc1ccccc1 [Sofosbuvir, reference compound]
viral RNA titer from day 0 to day 7 (proliferation inhibition effect) ([1]; agent 1 μM): no effect of inhibiting proliferation of human norovirus

C#C[C@@H]1OC(OC(C)=O)[C@@H](OC(C)=O)[C@H](OC(C)=O)[C@@H]1OC(C)=O (stereo partly drawn) [6a-fucose, 1,2,3,4-tetra-O-acetyl-6,7-dideoxy-L-galacto-hept-6-ynopyranose]
rise in RNA titer relative to the titer at the start of culturing ([2]; 6a-fucose 8 μM): about 10 times
rise in RNA titer ([2]; 6a-fucose 40 μM, day 6): no substantial increase in RNA titer was observed
rise in RNA titer ([2]; 6a-fucose 200 μM): completely inhibited
6a-fucose concentration at which the proliferation inhibition effect emerged ([2]; 4 days pre-treatment, 6 days culturing after infection): 1.6 µM
RNA titer relative to the titer at the start of culturing ([2]; each 6a-fucose treatment group (any concentration), culture day 6): ≤ 100 times
cytotoxicity to cultured cells (2D organoid): no cytotoxicity attributed to addition of 6a-fucose was observed
proliferation inhibition effect ([3]; 6a-fucose 1.6 μM): not recognized
human norovirus genome proliferation ([3]; 6a-fucose 8 μM, culture days 3 and 6): actively suppressed
human norovirus genome proliferation ([3]; 6a-fucose 40 μM): completely inhibited
rise in RNA titer (proliferation of human norovirus) in the addition group [4]: no rise in RNA titer
rise in RNA titer of the untreated group with respect to the administration system [4]: ≥ 150 fold

NC(=O)c1ncn([C@@H]2O[C@H](CO)[C@@H](O)[C@H]2O)n1 [Ribavirin, reference compound]
viral RNA titer from day 0 to day 7 (proliferation inhibition effect) ([1]; agent 400 μM): no effect of inhibiting proliferation of human norovirus

NC(=O)c1ncn([C@@H]2O[C@H](CO)[C@@H](O)[C@H]2O)c1O [Mizoribine, reference compound]
viral RNA titer from day 0 to day 7 (proliferation inhibition effect) ([1]; agent 100 μM): no effect of inhibiting proliferation of human norovirus
